≈ marks a conversion by molar mass, not a printed value. Like-named read-outs stand apart in the source and are kept apart here.
Experiments:
[1] = target: T1, CYP121A1 (Mycobacterium tuberculosis, UniProt P9WPP7); experiment: biochemical; type: binding; conditions: for Soret peak shift: Soret maximum ligand-free to ligand-bound CYP121A1; for Kd: UV-vis optical titration, 3–5 μM CYP121A1, 25 °C, pH 7.85, triplicate; for Soret maxima shifting by: extent of the Soret absorbance red shift on binding
T1 construct: made in house

[2] = system: M. tuberculosis H37Rv; experiment: Antimycobacterial activity, REMA (Resazurin Microtiter Assay) MIC; type: cell-based, Mycobacterium tuberculosis; conditions: lowest concentration giving 90 % inhibition, 7 days 37 °C
[3] = system: M. tuberculosis H37Rv; set-up: method as in PMID 29185746; conditions: lead compounds; cited from earlier work
[4] = target: T1, CYP121A1; conditions: cited from earlier work; for Soret peak shift: lead compounds and cYY (type I shift for cYY); for Kd: lead compounds and natural substrate cYY; for Soret peak shift to: azole antifungal drugs binding Mtb CYP121A1
[5] = Mycobacterium tuberculosis, H37RV, 168 h, read-out: MIC

T1 sequence (P9WPP7 whole entry): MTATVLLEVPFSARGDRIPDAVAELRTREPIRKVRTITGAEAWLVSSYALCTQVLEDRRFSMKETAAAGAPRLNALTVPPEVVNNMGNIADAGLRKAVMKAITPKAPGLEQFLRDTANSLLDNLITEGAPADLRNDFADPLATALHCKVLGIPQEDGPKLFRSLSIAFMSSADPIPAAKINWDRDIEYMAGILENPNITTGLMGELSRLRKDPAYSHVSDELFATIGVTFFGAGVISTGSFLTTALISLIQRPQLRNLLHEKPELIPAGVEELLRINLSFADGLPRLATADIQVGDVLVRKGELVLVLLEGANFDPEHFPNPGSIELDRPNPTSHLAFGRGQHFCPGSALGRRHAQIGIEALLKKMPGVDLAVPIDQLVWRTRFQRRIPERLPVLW

Compound	Soret peak shift [1]	Kd [1]	MIC [2, 5]	melting point	also measured
COc1ccc(-n2nc(Cn3cncn3)cc2C)cc1 [Compound 24, 1‐((1‐(4‐Methoxyphenyl)‐5‐methyl‐1H‐pyrazol‐3‐yl)methyl)‐1H‐1,2,4‐triazole]	416.5 to 418 nm	105 ± 7 µM	> 100 µg/mL		
c1ccc(-c2nn(-c3ccccc3)cc2Cn2ccnc2)cc1 [Compound 1, (1,3‐diphenyl)‐4‐((1,3‐imidazol‐1‐yl)methyl)‐1H‐pyrazole]					MIC [3]: 12.5 µg/mL (≈ 41.6 µM); Soret peak shift [4]: 416.5 to 424 nm; Kd [4]: 2.6 ± 0.2 µM
c1ccc(-n2cc(Cn3cncn3)c(-c3cccnc3)n2)cc1 [11 b, 3‐(4‐((1H‐1,2,4‐Triazol‐1‐yl)methyl)‐1‐phenyl‐1H‐pyrazol‐3‐yl)pyridine]	416.5 to 417.5 nm	250 ± 51.6 µM	> 100 µg/mL	110 to 112 °C	
O=C(NCCCn1ccnc1)c1cn(-c2ccccc2)nc1-c1cccnc1 [13 b, N‐(3‐(1H‐Imidazol‐1‐yl)propyl)‐1‐phenyl‐3‐(pyridin‐3‐yl)‐1H‐pyrazole‐4‐carboxamide]	416.5 to 417.5 nm	85.6 ± 12.4 µM	> 100 µg/mL	80 to 82 °C	
CCc1ccc(-c2nn(-c3ccccc3)cc2Cn2ccnc2)cc1 [10 c, 4‐((1H‐Imidazol‐1‐yl)methyl)‐3‐(4‐ethylphenyl)‐1‐phenyl‐1H‐pyrazole]	416.5 to 420 nm	18.3 ± 3.4 µM	1.56 µg/mL (≈ 4.76 µM)	74 to 76 °C	
Clc1ccccc1C(c1ccccc1)(c1ccccc1)n1ccnc1 [Clotrimazole, clotrimazole, reference compound]			20 µg/mL (≈ 58 µM)		
c1ccc(-n2cc(Cn3ccnc3)c(-c3ccncc3)n2)cc1 [10 a, 4‐(4‐((1H‐Imidazol‐1‐yl)methyl)‐1‐phenyl‐1H‐pyrazol‐3‐yl)pyridine]	416.5 to 419 nm	60.5 ± 10.5 µM	12.5 to 25 µg/mL (≈ 41.5 to 83 µM)	80 to 82 °C	MIC [2]: 12.5 µg/mL (≈ 41.5 µM)
O=C(NCc1ccncc1)c1cn(-c2ccccc2)nc1-c1ccncc1 [14 a, 1‐Phenyl‐3‐(pyridin‐4‐yl)‐N‐(pyridin‐4‐ylmethyl)‐1H‐pyrazole‐4‐carboxamide]	416.5 to 419.5 nm	219 ± 13.6 µM	> 100 µg/mL	206 to 208 °C	
COc1ccc(-n2nc(C)cc2Cn2ccnc2)cc1 [Compound 25, 5‐((1H‐Imidazol‐1‐yl)methyl)‐1‐(4‐methoxyphenyl)‐3‐methyl‐1H‐pyrazole]	416.5 to 418.5 nm	22.9 ± 0.2 µM	25 µg/mL (≈ 93.2 µM)		
COc1ccc(-n2nc(C)cc2Cn2cncn2)cc1 [Compound 26, 1‐((1‐(4‐Methoxyphenyl)‐3‐methyl‐1H‐pyrazol‐5‐yl)methyl)‐1H‐1,2,4‐triazole]		98.3 ± 7.4 µM	100 µg/mL (≈ 371 µM)	47 to 48 °C	
CCCc1ccc(-c2nn(-c3ccccc3)cc2Cn2ccnc2)cc1 [10 d, 4‐((1H‐Imidazol‐1‐yl)methyl)‐1‐phenyl‐3‐(4‐propylphenyl)‐1H‐pyrazole]	416.5 to 420 nm	53.7 ± 5.9 µM	0.781 µg/mL (≈ 2.28 µM)		
c1ccc(-c2nn(-c3ccccc3)cc2Cn2cncn2)cc1 [Compound 2, 1‐((1,3‐diphenyl‐1H‐pyrazol‐4‐yl)methyl)‐1H‐1, 2, 4triazole]					MIC [3]: 50 µg/mL (≈ 166 µM); Soret peak shift [4]: 416.5 to 422.5 nm; Kd [4]: 73.5 ± 0.7 µM
c1ccc(-n2cc(Cn3ccnc3)c(-c3cccnc3)n2)cc1 [10 b, 3‐(4‐((1H‐Imidazol‐1‐yl)methyl)‐1‐phenyl‐1H‐pyrazol‐3‐yl)pyridine]	416.5 to 421 nm	53.6 ± 6.8 µM	12.5 to 25 µg/mL (≈ 41.5 to 83 µM)		MIC [2]: 12.5 µg/mL (≈ 41.5 µM)
Clc1ccc(COC(Cn2ccnc2)c2ccc(Cl)cc2Cl)cc1 (centres unmarked) [econazole]					Soret peak shift to [4]: 421–423.5 nm
COc1ccc(-n2nc(Cn3ccnc3)cc2C)cc1 [Compound 23, 3‐((1H‐Imidazol‐1‐yl)methyl)‐1‐(4‐methoxyphenyl)‐5‐methyl‐1H‐pyrazole]	416.5 to 418 nm	34.5 ± 4.8 µM			
c1ccc(-c2ccc(-c3nn(-c4ccccc4)cc3Cn3ccnc3)cc2)cc1 [10 h, 4‐((1H‐Imidazol‐1‐yl)methyl)‐3‐([1,1′‐biphenyl]‐4‐yl)‐1‐phenyl‐1H‐pyrazole]	416.5 to 423.5 nm	2.91 ± 0.14 µM	3.12 µg/mL (≈ 8.3 µM)	114 to 115 °C	Soret maxima shifting by [1]: 7 nm
Clc1ccc(COC(Cn2ccnc2)c2ccc(Cl)cc2Cl)c(Cl)c1 (centres unmarked) [miconazole]					Soret peak shift to [4]: 421–423.5 nm
Clc1[nH]c2ccccc2c1-c1nn(-c2ccccc2)cc1Cn1ccnc1 [10 j, 3‐(4‐((1H‐Imidazol‐1‐yl)methyl)‐1‐phenyl‐1H‐pyrazol‐3‐yl)‐2‐chloro‐1H‐indole]	416.5 to 423.5 nm	3.31 ± 0.05 µM	12.5 to 25 µg/mL (≈ 33.4 to 66.9 µM)		Soret maxima shifting by [1]: 7 nm; MIC [2]: 25 µg/mL (≈ 66.9 µM)
CC(=O)N1CCN(c2ccc(OCC3COC(Cn4ccnc4)(c4ccc(Cl)cc4Cl)O3)cc2)CC1 (centres unmarked) [ketoconazole]					Soret peak shift to [4]: 421–423.5 nm
CC(C)c1ccc(-c2nn(-c3ccccc3)cc2Cn2ccnc2)cc1 [10 e, 4‐((1H‐Imidazol‐1‐yl)methyl)‐3‐(4‐isopropylphenyl)‐1‐phenyl‐1H‐pyrazole]	416.5 to 423 nm	22.5 ± 3.5 µM	1.56 µg/mL (≈ 4.56 µM)		Soret maxima shifting by [1]: 6.5 nm
CC(C)(C)c1ccc(-c2nn(-c3ccccc3)cc2Cn2ccnc2)cc1 [10 g, 4‐((1H‐Imidazol‐1‐yl)methyl)‐3‐(4‐(tert‐butyl)phenyl)‐1‐phenyl‐1H‐pyrazole]	416.5 to 419.5 nm	4.81 ± 0.31 µM	1.56 µg/mL (≈ 4.38 µM)	116 to 117 °C	
OC(Cn1cncn1)(Cn1cncn1)c1ccc(F)cc1F [Fluconazole, fluconazole, reference compound]			> 100 µg/mL		
O=C(NCCCn1ccnc1)c1cn(-c2ccccc2)nc1-c1ccncc1 [13 a, N‐(3‐(1H‐Imidazol‐1‐yl)propyl)‐1‐phenyl‐3‐(pyridin‐4‐yl)‐1H‐pyrazole‐4‐carboxamide]	416.5 to 423.5 nm	83.2 ± 3.9 µM	100 µg/mL (≈ 269 µM)	104 to 106 °C	Soret maxima shifting by [1]: 7 nm
c1ccc(-n2cc(Cn3ccnc3)c(-c3ccc4c(c3)OCO4)n2)cc1 [10 i, 4‐((1H‐Imidazol‐1‐yl)methyl)‐3‐(benzo[d][1,3]dioxol‐5‐yl)‐1‐phenyl‐1H‐pyrazole]	416.5 to 422.5 nm	10.1 ± 0.3 µM	3.12 µg/mL (≈ 9.07 µM)	62 to 64 °C	
O=C(NCc1ccncc1)c1cn(-c2ccccc2)nc1-c1cccnc1 [14 b, 1‐Phenyl‐3‐(pyridin‐3‐yl)‐N‐(pyridin‐4‐ylmethyl)‐1H‐pyrazole‐4‐carboxamide]	416.5 to 417.5 nm	39 ± 8.2 µM	> 100 µg/mL	206 to 208 °C	
CC(C)Cc1ccc(-c2nn(-c3ccccc3)cc2Cn2ccnc2)cc1 [10 f, 4‐((1H‐Imidazol‐1‐yl)methyl)‐3‐(4‐isobutylphenyl)‐1‐phenyl‐1H‐pyrazole]	416.5 to 423.5 nm	0.22 ± 0.01 µM	1.56 µg/mL (≈ 4.38 µM)		Soret maxima shifting by [1]: 7 nm
c1ccc(-n2cc(Cn3cncn3)c(-c3ccncc3)n2)cc1 [11 a, 4‐(4‐((1H‐1,2,4‐Triazol‐1‐yl)methyl)‐1‐phenyl‐1H‐pyrazol‐3‐yl)pyridine]	416.5 to 417.5 nm	115 ± 27 µM	> 100 µg/mL	98 to 100 °C	

Reference: article PMC6646865, “Design and Synthesis of Imidazole and Triazole Pyrazoles as Mycobacterium Tuberculosis CYP121A1 Inhibitors” (ChemistryOpen, 2019)
